Laboratory results from article PMC10192561 (Frontiers in Pharmacology, 2023).
Entries after “also recorded” stand apart in the source; their conditions may differ. Read-outs that look alike come from different tables or passages of the source.

How the values were obtained:
[1] = Pharmacokinetics of flumatinib and M1 in SD rats with or without isavuconazole; format: in vivo, Sprague-Dawley male rats; conditions: for AUC(0-inf) / AUC(0-t) / Cmax / Tmax / half-life / CL/F / MRT last / MRT inf: male, Sprague-Dawley, rat, plasma, po, 60 mg/kg; for CL/F: read-out: CLz/F (converted); for MRT last: read-out: MRT0→t; for MRT inf: read-out: MRT0→∞
Protocol: Quantification of the analytes was made by using a Waters XEVO TQS triple quadruple mass spectrometer with a multiple reaction monitoring (MRM) in positive ion mode. The mobile phase was consisted of 0.1% formic acid aqueous solution (A) and acetonitrile (B) at a flow rate of 0.4 mL/min. An elution program of 90% A (0–0.5 min), 90%–10% A (0.5–1.0 min), 10% A (1–1.5 min), 10%–90% A (1.5–1.6 min) and 90% A (1.6–2 min) was performed. The whole elution took 2 min. During the analysis, the temperature of the column and autosampler rack was controlled at 40°C and 10°C, respectively.
Sprague–Dawley male rats (SD male rats, 200 ± 20 g) were purchased from the Animal Experimental Center of The First Affiliated Hospital of Wenzhou Medical University (Zhejiang, China). […] The rats in both groups started fasting for 12 h ahead of the experiment, but were free to water. […] Tail vein blood samples were collected from rats in both groups at multiple time points (0.67, 1, 1.5, 2, 3, 4, 6, 8, 12, and 24 h). Subsequently, an additional 300 μL acetonitrile and 20 μL dasatinib (200 ng/mL) were added to 100 μL plasma. Then the mixture was vortexed to mix thoroughly for 2 min and centrifuged at 13,000 rpm for 10 min to obtain the final supernatant for UPLC-MS/MS analysis.
IC50 and enzyme kinetic parameters were obtained using GraphPad Prism 8.0 software (GraphPad software Inc., CA, United States). Non-compartmental analysis was performed by using Drugs and Statistics (DAS) software (version 3.0 software, Shanghai University of Traditional Chinese Medicine, China) to obtain pharmacokinetic profiles. Mean plasma concentration-time curves were generated using Origin 8.0, and the parameters were statistically investigated between groups using independent samples t-test by SPSS 24.0 software (SPSS Inc., Chicago, IL, United States). All data were expressed as mean ± SD and p < 0.05 was considered statistically significant.

[2] = biological target: flumatinib metabolism in HLM (Homo sapiens, UniProt P08684); test: Inhibition of flumatinib metabolism in human liver microsome incubation (UPLC-MS/MS)
Sequence of flumatinib metabolism in HLM (P08684 2-503): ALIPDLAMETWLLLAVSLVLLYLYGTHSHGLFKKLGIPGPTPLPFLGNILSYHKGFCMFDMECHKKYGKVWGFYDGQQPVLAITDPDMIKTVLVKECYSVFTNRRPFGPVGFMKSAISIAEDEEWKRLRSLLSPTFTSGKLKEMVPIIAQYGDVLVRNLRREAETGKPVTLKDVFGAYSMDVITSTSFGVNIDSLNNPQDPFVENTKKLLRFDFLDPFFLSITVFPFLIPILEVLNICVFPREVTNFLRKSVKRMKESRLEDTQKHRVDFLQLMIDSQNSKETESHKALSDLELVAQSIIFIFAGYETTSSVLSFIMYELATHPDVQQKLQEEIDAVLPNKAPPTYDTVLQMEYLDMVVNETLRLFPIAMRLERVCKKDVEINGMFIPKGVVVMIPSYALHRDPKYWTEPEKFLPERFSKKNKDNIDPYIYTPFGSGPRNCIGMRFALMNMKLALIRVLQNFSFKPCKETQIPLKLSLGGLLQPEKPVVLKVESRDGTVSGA

[3] = test system: flumatinib metabolism in RLM; test: Inhibition of flumatinib metabolism in rat liver microsome incubation (UPLC-MS/MS); conditions: rat, rat liver microsomes
[4] = test system: rat liver microsomes (RLM); test: Michaelis-Menten kinetics of flumatinib metabolism in RLM; format: in vitro ADME; conditions: flumatinib as substrate, RLM 0.4 mg/mL
Protocol: An in vitro liver microsome incubation system was set up, then the drug was added to the system and incubated for […] as to determine the metabolism of the drug by the microsomes. […] The NADPH-free mixture was preincubated at 37°C for 5 min, followed by the addition of 1 mM NADPH to activate the reaction. The mixture was incubated at 37 °C for 40 min until 20 μL of IS solution (200 ng/mL) and 400 μL of cool acetonitrile were added. It was then centrifuged at 13,000 rpm for 5 min. After that, 100 μL of the supernatant was taken to conduct the analysis by UPLC-MS/MS.

[5] = biological target: recombinant human CYP3A4 (rCYP3A4) (Homo sapiens, UniProt P08684); test: Inhibition of flumatinib metabolism in recombinant human CYP3A4 incubation (UPLC-MS/MS)
Sequence of recombinant human CYP3A4 (rCYP3A4) (P08684 whole entry): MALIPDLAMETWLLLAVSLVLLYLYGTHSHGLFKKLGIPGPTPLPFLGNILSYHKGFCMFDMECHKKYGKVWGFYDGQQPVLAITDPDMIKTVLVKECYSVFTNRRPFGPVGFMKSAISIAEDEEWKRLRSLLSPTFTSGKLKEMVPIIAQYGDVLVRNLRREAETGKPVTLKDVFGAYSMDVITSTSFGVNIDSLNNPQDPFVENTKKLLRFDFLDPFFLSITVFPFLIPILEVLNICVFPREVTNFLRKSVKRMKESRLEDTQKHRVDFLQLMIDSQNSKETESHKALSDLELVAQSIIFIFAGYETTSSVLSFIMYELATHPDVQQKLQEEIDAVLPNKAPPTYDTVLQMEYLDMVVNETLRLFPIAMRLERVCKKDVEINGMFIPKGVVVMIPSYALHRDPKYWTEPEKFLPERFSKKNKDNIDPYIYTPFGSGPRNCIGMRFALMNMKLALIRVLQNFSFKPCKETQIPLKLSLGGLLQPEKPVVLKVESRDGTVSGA

[6] = biological target: flumatinib metabolism in HLM (CYP3A4; ketoconazole as positive control) (Homo sapiens, UniProt P08684); test: Inhibition of flumatinib metabolism in human liver microsome incubation (UPLC-MS/MS); conditions: human liver microsomes, probe flumatinib […] (at Km)
Sequence of flumatinib metabolism in HLM (CYP3A4; ketoconazole as positive control) (P08684 2-503): as the sequence (P08684 2-503) above

[7] = test system: rat liver microsomes (RLM); test: Inhibition of flumatinib metabolism in rat liver microsome incubation (UPLC-MS/MS); conditions: flumatinib metabolism in RLM
[8] = set-up: method as in McCarthy et al., 2018; conditions: co-administration with isavuconazole; ref McCarthy et al., 2018; cited from earlier work
[9] = group A: 60 mg/kg flumatinib dosed orally alone
[10] = group B: 20 mg/kg isavuconazole and 60 mg/kg flumatinib dosed orally
[11] = probe flumatinib (2.17 µM in RLM, at Km)
[12] = with 20 mg/kg isavuconazole vs flumatinib alone

Cc1ncc(NC(=O)c2ccc(CN3CCNCC3)c(C(F)(F)F)c2)cc1Nc1nccc(-c2cccnc2)n1 [M1, N-desmethyl flumatinib]
effect of isavuconazole on pharmacokinetic parameters of the metabolite ([1]; combination vs control group): no effect; also recorded: No statistical significances
AUC(0-inf) [1, 9]: 314 ± 134 ng·h/mL
AUC(0-t) [1, 9]: 282 ± 135 ng·h/mL
Cmax [1, 9]: 19.9 ± 32.8 ng/mL
Tmax [1, 9]: 2.6 ± 1.14 h
half-life [1, 9]: 5.28 ± 1.24 h
CL/F [1, 9]: 3940 mL/min/kg
MRT last [1, 9]: 6.73 ± 1.68 h
MRT inf [1, 9]: 8.86 ± 1.39 h
AUC(0-inf) [1, 10]: 395 ± 63.1 ng·h/mL
AUC(0-t) [1, 10]: 352 ± 49.8 ng·h/mL
Cmax [1, 10]: 31.9 ± 3.98 ng/mL
Tmax [1, 10]: 5 ± 2.45 h
half-life [1, 10]: 7.29 ± 2.01 h
CL/F [1, 10]: 2580 mL/min/kg
MRT last [1, 10]: 8.2 ± 0.19 h
MRT inf [1, 10]: 11.2 ± 1.53 h

OC(Cn1cncn1)(Cn1cncn1)c1ccc(F)cc1F [fluconazole]
IC50 at 40 min [2]: 92.6 µM
IC50 at 40 min [3, 11]: 24.8 µM

Cc1ncc(NC(=O)c2ccc(CN3CCN(C)CC3)c(C(F)(F)F)c2)cc1Nc1nccc(-c2cccnc2)n1 [flumatinib]
Km [4]: 2.2 µM
AUC(0-inf) [1, 9]: 3040 ± 664 ng·h/mL
AUC(0-t) [1, 9]: 2750 ± 887 ng·h/mL
Cmax [1, 9]: 282 ± 36.8 ng/mL
Tmax [1, 9]: 6 ± 2.74 h
half-life [1, 9]: 4.04 ± 2.65 h
CL/F [1, 9]: 340 mL/min/kg
MRT last [1, 9]: 6.82 ± 1.94 h
MRT inf [1, 9]: 7.66 ± 2.01 h
AUC(0-inf) [1, 10]: 5710 ± 744 ng·h/mL
AUC(0-t) [1, 10]: 4730 ± 1290 ng·h/mL
Cmax [1, 10]: 481 ± 33.3 ng/mL
Tmax [1, 10]: 4.4 ± 1.52 h
half-life [1, 10]: 4.88 ± 2.91 h
CL/F [1, 10]: 177 mL/min/kg
MRT last [1, 10]: 6.87 ± 1.33 h
MRT inf [1, 10]: 9.2 ± 3.59 h
AUC(0–t), group B relative to group A [1, 12]: 1.72 fold
AUC(0–∞), group B relative to group A [1, 12]: 1.88 fold
CLz/F lower than group A [1, 12]: 48%
Cmax, group B relative to group A [1, 12]: 1.70 fold

C[C@@H](c1nc(-c2ccc(C#N)cc2)cs1)[C@](O)(Cn1cncn1)c1cc(F)ccc1F [isavuconazole]
Inhibition type [5]: mixed inhibitory mechanisms; also recorded: mixed type; also recorded: a mixture of competitive and non-competitive inhibition; also recorded: Mixed inhibition
α [5]: 0.71
IC50 at 40 min [6]: 6.66 µM
IC50 at 40 min ([3]; probe flumatinib 2.17 µM (at Km)): 0.62 µM
Inhibition type [7]: mixed inhibitory mechanisms; also recorded: mixed type; also recorded: a mixture of competitive and non-competitive inhibition; also recorded: Mixed inhibition
Ki [7]: 1.44 µM
α [7]: 0.52

CCC(C)n1ncn(-c2ccc(N3CCN(c4ccc(OCC5COC(Cn6cncn6)(c6ccc(Cl)cc6Cl)O5)cc4)CC3)cc2)c1=O (stereo not drawn) [itraconazole]
IC50 at 40 min [2]: 11.6 µM
IC50 at 40 min [3, 11]: 1.06 µM

CC(=O)N1CCN(c2ccc(OCC3COC(Cn4ccnc4)(c4ccc(Cl)cc4Cl)O3)cc2)CC1 (stereo not drawn) [ketoconazole]
Inhibition type [7]: mixed inhibitory mechanisms; also recorded: Mixed inhibition
Ki [7]: 0.33 µM

CC[C@@H]([C@H](C)O)n1ncn(-c2ccc(N3CCN(c4ccc(OC[C@@H]5CO[C@@](Cn6cncn6)(c6ccc(F)cc6F)C5)cc4)CC3)cc2)c1=O [posaconazole]
IC50 at 40 min ([2]; human liver microsomes, probe flumatinib ([…] in HLM, at Km)): 1.72 µM
IC50 at 40 min [3, 11]: 1.53 µM

CO[C@H]1C[C@@H]2CC[C@@H](C)[C@@](O)(O2)C(=O)C(=O)N2CCCC[C@H]2C(=O)O[C@H]([C@H](C)C[C@@H]2CC[C@@H](O)[C@H](OC)C2)CC(=O)[C@H](C)/C=C(\C)[C@@H](O)[C@@H](OC)C(=O)[C@H](C)C[C@H](C)/C=C/C=C/C=C/1C [sirolimus]
AUC increase when combined with isavuconazole [8]: 84%

C=CC[C@@H]1/C=C(\C)C[C@H](C)C[C@H](OC)[C@H]2O[C@@](O)(C(=O)C(=O)N3CCCC[C@H]3C(=O)O[C@H](/C(C)=C/[C@@H]3CC[C@@H](O)[C@H](OC)C3)[C@H](C)[C@@H](O)CC1=O)[C@H](C)C[C@@H]2OC [tacrolimus]
AUC increase when combined with isavuconazole [8]: 125%

C[C@@H](c1ncncc1F)[C@](O)(Cn1cncn1)c1ccc(F)cc1F [voriconazole]
IC50 at 40 min [2]: 325 µM
IC50 at 40 min [3, 11]: 12.4 µM
